Data reported in patent US11110096B2, “Combination therapies” (Infinity Pharmaceuticals, Inc., priority 2014, dated 2021).

What was measured:
[1] = test system: CLL; assay: Compound 1 monotherapy in a patient with CLL (clinical trial); assay type: in vivo, human; conditions: 25 mg bid monotherapy
Method: A patient diagnosed with CLL was treated by a monotherapy of Compound 1 (25 mg bid) in a clinical trial. Serum samples of the patient were collected at various points in the treatment. The copy number of STK11 in the serum samples was determined by CytoScan (Affymetrix).

[2] = test system: SU-DHL-4 Compound 1 resistant clones; assay: CTG (CellTiter-Glo) assay, Compound 1 resistant clones; assay type: cell-based; conditions: Homo sapiens, Cpnd 1 resistant clones
Method: (§1) Experiments were performed to examine the pathway and gene expression alterations in a cell line resistant to PI3K inhibitors. SU-DHL-4 is a DLBCL cell line. […] Five clones from each group were expanded. Cells were harvested for various assays, including CellTiter-Glo® assays, PD, RNA analysis, DNA analysis, and short tandem repeat (STR) fingerprinting.
(§2) Five clones from each group were expanded. Cells were harvested for various assays, including CTG (CellTiter-Glo, Promega, an assay that measures ATP levels as a surrogate for cell number in order to observe cell viability and changes in proliferation rate), PD (pharmacodynamic), RNA analysis, DNA analysis, and short tandem repeat (STR) fingerprinting. […] See, e.g., FIG. 16.

[3] = test system: SU-DHL-4 IBR resistant clones; assay: CTG (CellTiter-Glo) assay, ibrutinib resistant clones; assay type: cell-based; conditions: Homo sapiens, read-out: AVG Cpnd 1 IC50
Method: as §1

[4] = test system: SU-DHL-4 control clones; assay: CTG (CellTiter-Glo) assay, control (DMSO-treated) clones; assay type: cell-based; conditions: Homo sapiens, read-out: AVG Cpnd 1 IC50
Method: as §1, §2

[5] = test system: Bcl-2 family genes; assay: RNAseq gene expression changes in peripheral blood of Compound 1-treated CLL patients; assay type: in vivo, human
Method: RNAseq technology was used to measure gene expression changes in peripheral blood in patients treated with Compound 1. The patients were treated as part of a clinical trial (identifier NCT01476657) which is a phase 1 study in patients with advanced hematologic malignancies. Briefly, RNA was extracted from 200 ul of blood using TRI reagent, followed by RNA purification using a Zymo-Spin column. Timepoints were taken at baseline and cycle 1 day 8 (C1D8), which is 7 days of Compound 1 treatment. Expression was quantified using both FPKM and VOOM methods. Filters were used to prioritize genes identified during this analysis.

[6] = test system: KARPAS-422; assay: Combination study Compound 1 + Bcl-2 inhibitor, ATPLite 72 h, follicular lymphoma cell line; assay type: cell-based; conditions: combination with Compound 1
From the text: (§3) The method is described as follows.

[7] = test system: RL; assay: as above; assay type: cell-based; conditions: combination with Compound 1
From the text: as §3

[8] = test system: Mino; assay: Combination study Compound 1 + Bcl-2 inhibitor, ATPLite 72 h, mantle cell lymphoma cell line; assay type: cell-based; conditions: combination with Compound 1
From the text: The method is described as follows. […] Additive effect is CI=1.0. […] Antagonistic effect is CI>1.0. […] These cell lines include GRANTA-519, Jeko-1 and Mino.

[9] = test system: GRANTA-519; assay: as above; assay type: cell-based; conditions: combination with Compound 1
From the text: (§4) The method is described as follows. […] These cell lines include GRANTA-519, Jeko-1 and Mino.

[10] = test system: Jeko-1; assay: as above; assay type: cell-based; conditions: combination with Compound 1
From the text: as §4

[11] = test system: HH; assay: Combination study Compound 1 + Bcl-2 inhibitor, ATPLite 72 h, T-cell lymphoma cell line; assay type: cell-based; conditions: combination with Compound 1
From the text: (§5) The method is described as follows. […] The cell line includes HH and Karpas-299.

[12] = test system: KARPAS-299; assay: as above; assay type: cell-based; conditions: combination with Compound 1
From the text: as §5

[13] = test system: RPMI-8226; assay: Combination study Compound 1 + Bcl-2 inhibitor, ATPLite 72 h, multiple myeloma cell line; assay type: cell-based; conditions: combination with Compound 1
From the text: (§6) The method is described as follows. […] Additive effect is CI=1.0. […] Antagonistic effect is CI>1.0. […] These cell lines include NCI-H929, OMP-2, and RPMI-8226.

[14] = test system: OPM-2; assay: as above; assay type: cell-based; conditions: combination with Compound 1
From the text: as §6

[15] = test system: NCI-H929; assay: as above; assay type: cell-based; conditions: combination with Compound 1
From the text: as §6

[16] = test system: Farage; assay: Combination study Compound 1 + Bcl-2 inhibitor, ATPLite 72 h, DLBCL GCB cell line; assay type: cell-based; conditions: combination with Compound 1
From the text: as §3

[17] = test system: SU-DHL-10-epst; assay: as above; assay type: cell-based; conditions: combination with Compound 1
From the text: as §3

[18] = test system: OCI-Ly7; assay: as above; assay type: cell-based; conditions: combination with Compound 1
From the text: as §3

[19] = test system: WSU-NHL; assay: Combination study Compound 1 + Bcl-2 inhibitor, ATPLite 72 h, follicular lymphoma cell line; assay type: cell-based; conditions: combination with Compound 1
From the text: (§7) The method is described as follows. […] Additive effect is CI=1.0. […] Antagonistic effect is CI>1.0.

[20] = test system: SU-DHL-4-epst; assay: Combination study Compound 1 + Bcl-2 inhibitor, ATPLite 72 h, DLBCL GCB cell line; assay type: cell-based; conditions: combination with Compound 1
From the text: as §7

[21] = test system: DOHH-2; assay: as above; assay type: cell-based; conditions: combination with Compound 1
From the text: as §7

[22] = test system: OCI-Ly3; assay: Combination study Compound 1 + Bcl-2 inhibitor, ATPLite 72 h, DLBCL ABC cell line; assay type: cell-based; conditions: combination with Compound 1
From the text: as §3

[23] = test system: U-2932; assay: as above; assay type: cell-based; conditions: combination with Compound 1
From the text: as §3

[24] = test system: TMD8; assay: as above; assay type: cell-based; conditions: combination with Compound 1
From the text: as §3

[25] = test system: HBL-1; assay: as above; assay type: cell-based; conditions: combination with Compound 1
From the text: as §3

[26] = peripheral blood, Compound 1-treated patients, baseline vs C1D8

With `C[C@H](Nc1ncnc2[nH]cnc12)c1cc2cccc(Cl)c2c(=O)n1-c1ccccc1` [Compound 1, (S)-3-(1-((9H-purin-6-yl)amino)ethyl)-8-chloro-2-phenylisoquinolin-1(2H)-one] the patient response ([1]; after C7 (cycle 7)) was “progressed”, the patient response ([1]; at C3D1 (cycle 3, day 1)) was “partial response” and the IC50 [2] was 5420 ± 1080 nM. For the same molecule, the IC50 [3] was 805 ± 339 nM, the IC50 [4] was 241 ± 17 nM and the “HRK expression level increase” value ([5]; many of the patients having stable disease or partial remission, after 7 days of Compound 1 treatment, FIG. 7) was “at least 1.5 fold”. The “BBC3 (also called PUMA) gene expression change” value [5, 26] was “up-regulated”, the “BIK gene expression change” value [5, 26] was “downregulated” and the “BMF gene expression change” value [5, 26] was “up-regulated”. The “Bcl2L11 (also called BIM) gene expression change” value [5, 26] was “up-regulated”, the “Bcl2 gene expression change” value [5, 26] was “up-regulated” and the “HRK gene expression change” value [5, 26] was “up-regulated”. The “PMAIP1 (also called NOXA) gene expression change” value [5, 26] was “up-regulated”.

In the case of `CC1(C)CCC(c2ccc(Cl)cc2)=C(CN2CCN(c3ccc(C(=O)NS(=O)(=O)c4ccc(N[C@H](CCN5CCOCC5)CSc5ccccc5)c(S(=O)(=O)C(F)(F)F)c4)cc3)CC2)C1` [ABT-263, (R)-4-(4-((4′-chloro-4,4-dimethyl-3,4,5,6-tetrahydro-[1,1′-biphenyl]-2-yl)methyl)piperazin-1-yl)-N-((4-((4-morpholino-1-(phenylthio)butan-2-yl)amino)-3((trifluoromethyl)sulfonyl)phenyl)sulfonyl)benzamide], the CI50 growth inhibition [6] is reported as “S (S=0.1 to <0.5)”, the CI50 inhibition [6] is reported as “T (T=0.5 to <0.7)” and the “Synergy score growth inhibition” value [6] is reported as “A4 (A4=≥10)”. The Synergy score inhibition [6] was “A3 (A3=3 to <10)”, the CI50 growth inhibition [7] was “U (U=0.7 to <1)” and the CI50 inhibition [7] was “U (U=0.7 to <1)”. The “Synergy score growth inhibition” value [7] was “A3 (A3=3 to <10)”, the Synergy score inhibition [7] was “A1 (A1=0.0001 to <1)” and the CI50 growth inhibition [8] was “S (S=0.1 to <0.5)”. The CI50 inhibition [8] was “T (T=0.5 to <0.7)”, the “Synergy score growth inhibition” value [8] was “A3 (A3=3 to <10)” and the Synergy score inhibition [8] was “A2 (A2=1 to <3)”. The CI50 growth inhibition [9] was “S (S=0.1 to <0.5)”, the CI50 inhibition [9] was “W (W=≥1)” and the “Synergy score growth inhibition” value [9] was “A3 (A3=3 to <10)”. For the same molecule, the Synergy score inhibition [9] was “A1 (A1=0.0001 to <1)”, the CI50 growth inhibition [10] was “S (S=0.1 to <0.5)” and the CI50 inhibition [10] was “S (S=0.1 to <0.5)”. The “Synergy score growth inhibition” value [10] was “A3 (A3=3 to <10)”, the Synergy score inhibition [10] was “A3 (A3=3 to <10)” and the CI50 growth inhibition [11] was “U (U=0.7 to <1)”. For the same molecule, the CI50 inhibition [11] was “S (S=0.1 to <0.5)”, the “Synergy score growth inhibition” value [11] was “A3 (A3=3 to <10)” and the Synergy score inhibition [11] was “A2 (A2=1 to <3)”. For the same molecule, the “Synergy score growth inhibition” value [12] was “A1 (A1=0.0001 to <1)”, the Synergy score inhibition [12] was “A1 (A1=0.0001 to <1)” and the CI50 growth inhibition [13] was “T (T=0.5 to <0.7)”. For the same molecule, the CI50 inhibition [13] was “U (U=0.7 to <1)”, the “Synergy score growth inhibition” value [13] was “A3 (A3=3 to <10)” and the Synergy score inhibition [13] was “A2 (A2=1 to <3)”. For the same molecule, the CI50 growth inhibition [14] was “T (T=0.5 to <0.7)”, the CI50 inhibition [14] was “U (U=0.7 to <1)” and the “Synergy score growth inhibition” value [14] was “A3 (A3=3 to <10)”. The Synergy score inhibition [14] was “A2 (A2=1 to <3)”, the CI50 growth inhibition [15] was “U (U=0.7 to <1)” and the CI50 inhibition [15] was “T (T=0.5 to <0.7)”. For the same molecule, the “Synergy score growth inhibition” value [15] was “A2 (A2=1 to <3)”, the Synergy score inhibition [15] was “A2 (A2=1 to <3)” and the CI50 growth inhibition [16] was “T (T=0.5 to <0.7)”. For the same molecule, the CI50 inhibition [16] was “T (T=0.5 to <0.7)”, the “Synergy score growth inhibition” value [16] was “A3 (A3=3 to <10)” and the Synergy score inhibition [16] was “A2 (A2=1 to <3)”. The CI50 growth inhibition [17] was “U (U=0.7 to <1)”, the CI50 inhibition [17] was “U (U=0.7 to <1)” and the “Synergy score growth inhibition” value [17] was “A3 (A3=3 to <10)”. For the same molecule, the Synergy score inhibition [17] was “A2 (A2=1 to <3)”, the CI50 growth inhibition [18] was “W (W=≥1)” and the “Synergy score growth inhibition” value [18] was “A1 (A1=0.0001 to <1)”. For the same molecule, the Synergy score inhibition [18] was “A1 (A1=0.0001 to <1)”, the CI50 growth inhibition [19] was “T (T=0.5 to <0.7)” and the CI50 inhibition [19] was “S (S=0.1 to <0.5)”. For the same molecule, the “Synergy score growth inhibition” value [19] was “A4 (A4=≥10)”, the Synergy score inhibition [19] was “A3 (A3=3 to <10)” and the CI50 growth inhibition [20] was “T (T=0.5 to <0.7)”. For the same molecule, the CI50 inhibition [20] was “S (S=0.1 to <0.5)”, the “Synergy score growth inhibition” value [20] was “A4 (A4=≥10)” and the Synergy score inhibition [20] was “A3 (A3=3 to <10)”. For the same molecule, the CI50 growth inhibition [21] was “S (S=0.1 to <0.5)”, the CI50 inhibition [21] was “S (S=0.1 to <0.5)” and the “Synergy score growth inhibition” value [21] was “A4 (A4=≥10)”. For the same molecule, the Synergy score inhibition [21] was “A3 (A3=3 to <10)”, the CI50 growth inhibition [22] was “U (U=0.7 to <1)” and the CI50 inhibition [22] was “W (W=≥1)”. The “Synergy score growth inhibition” value [22] was “A3 (A3=3 to <10)”, the Synergy score inhibition [22] was “A1 (A1=0.0001 to <1)” and the CI50 growth inhibition [23] was “T (T=0.5 to <0.7)”. For the same molecule, the CI50 inhibition [23] was “T (T=0.5 to <0.7)”, the “Synergy score growth inhibition” value [23] was “A3 (A3=3 to <10)” and the Synergy score inhibition [23] was “A2 (A2=1 to <3)”. The CI50 growth inhibition [24] was “S (S=0.1 to <0.5)”, the CI50 inhibition [24] was “T (T=0.5 to <0.7)” and the “Synergy score growth inhibition” value [24] was “A3 (A3=3 to <10)”. The Synergy score inhibition [24] was “A2 (A2=1 to <3)”, the CI50 growth inhibition [25] was “S (S=0.1 to <0.5)” and the CI50 inhibition [25] was “U (U=0.7 to <1)”. For the same molecule, the “Synergy score growth inhibition” value [25] was “A3 (A3=3 to <10)” and the Synergy score inhibition [25] was “A2 (A2=1 to <3)”.
